Experimental data reported in patent US10221168B1, “Small-compound enhancers for functional O-mannosylation of alpha-dystroglycan, and uses thereof” (priority 2015, dated 2019).

Tests used:
[1] = system: FOG of α-DG on the cell surfaces; assay: Cell-based HTS/HCS assay, IIH6 antibody as probe (EC1.5); conditions: concentration of the compound required to enhance the FOG of α-DG by 50% over the controls; cell-based assays in vitro
[2] = system: functional O-mannosylation of α-DG on cell surfaces (CHO, C2C12, HSMB, FKRPD cells); assay: Immuno-fluorescent staining with IIH6 antibody after compound treatment (FIG. 1); type: cell-based, Chinese hamster, mouse, human; conditions: FKRPD cells in 96 well-plates, series of concentrations, 48 hours
Protocol: The Chinese hamster ovary (CHO), mouse myoblasts (C2C12), normal human myoblasts (HSMB), human FKRP deficient myoblasts (FKRPD) were grown in 96 well-plates and treated with the compound at a series concentrations for 48 hours. The cells were examined with immuno-fluorescent staining using the IIH6 antibody that recognize the FOG of α-DG as the primary antibody followed by an appropriate secondary antibody conjugated with fluorophore. The detailed protocol is described in experiment section below.
Protein glycosylation is a multiple-step process that requires a large number of proteins in the secretory pathway of the cells. Thus we chose cell-based assay because our goal is to identify enhancer the FOG of α-DG on the cell surfaces. The assay system is HTS/HCS friendly and can adapt to various cell lines including myotubes as well as various readout methods including AlphaScreen, fluorescence density and HCS/fluorescence imaging. The standard operation protocol (SOP) for adhesion cells is described below and the FIG. 1 illustrates the assay process using myoblasts as the controls and screening cells and the IIH6 antibody as the probe. Other adhesion cells such CHO (Chinese hamster ovary) cell line can be implemented into this assay by simply removing the differentiation step.
The cells were fixed, permeablized, and then blocked with 10% BSA in PBS for 1 hour. […]

| Compound | Activity (EC1.5) [1] | enhancement of the functional O-mannosylation of α-DG on cell surfaces [2] |
| --- | --- | --- |
| CCC(c1nnnn1Cc1cccs1)N1CCN(c2nc3cc(N)cc(F)c3s2)CC1 (stereo not drawn) [Compound 46, 5-amino-7-fluoro-2-(4-(1-(1-(thiophen-2-ylmethyl)-1H-tetrazol-5-yl)propyl)piperazin-1-yl)benzothiazole] | H (EC1.5<5 μM) | dose-dependent enhancement |
| CCC(c1nnnn1CCc1cccs1)N1CCCN(c2nc3cc(N)cc(F)c3s2)CC1 (stereo not drawn) [Compound 76, 5-amino-7-fluoro-2-(4-(1-(1-(thiophen-2-ylethyl)-1H-tetrazol-5-yl)propyl)1,4-diazepane-1-yl)benzothiazole] | H (EC1.5<5 μM) | – |
